Results published in patent publication US9777005B2 (Takeda Pharmaceutical Company Limited, priority 2012, dated 2017).

Biological target: T1, human M1 receptor (hCHRM1) (Homo sapiens, UniProt P11229)
T1 construct: expressed in transfected cells; host or cells: CHO-K1
T1 sequence (P11229 1-460): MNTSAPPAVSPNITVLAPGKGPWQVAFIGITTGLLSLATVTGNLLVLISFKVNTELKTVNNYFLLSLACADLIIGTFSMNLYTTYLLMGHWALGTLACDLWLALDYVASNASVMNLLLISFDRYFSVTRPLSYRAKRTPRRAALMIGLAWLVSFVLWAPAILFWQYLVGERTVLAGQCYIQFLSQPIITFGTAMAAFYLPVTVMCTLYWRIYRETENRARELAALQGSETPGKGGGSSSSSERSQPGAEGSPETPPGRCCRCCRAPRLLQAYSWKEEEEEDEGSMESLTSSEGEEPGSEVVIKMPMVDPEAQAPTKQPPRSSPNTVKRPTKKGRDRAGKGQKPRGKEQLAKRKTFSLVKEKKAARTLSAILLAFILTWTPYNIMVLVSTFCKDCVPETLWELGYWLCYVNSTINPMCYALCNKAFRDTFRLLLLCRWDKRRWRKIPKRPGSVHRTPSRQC
Experiment: Measurement of M1 receptor positive allosteric modulator (M1PAM) activity, calcium fluorescence (FLIPRtetra) in CHO-K1 cells in the presence of acetylcholine at EC20
Format: cell-based
Conditions: in the presence of acetylcholine at EC20 (final 0.6 nM), CHO-K1 cells expressing hCHRM1; for EC50: inflection point of M1PAM activity, read-out: IP value; for activity (%) at 10 μM: test compound 10 μM
Outline: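 PAM activity was measured as calcium flux by FLIPRtetra over 1 min after co-addition of compound and EC20 acetylcholine (final 0.6 nM) to Fluo-4-loaded hCHRM1 CHO-K1 cells. The response was scaled between DMSO (0%) and 1 μM acetylcholine (100%), and the inflection point of the concentration curve gives the IP value.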

Row | EC50 | activity (%) at 10 μM | SMILES
1 | 26 nM | 110% | Cc1nn(C)cc1-c1ccc(CN2Cc3ccnc(Oc4c(F)cccc4Cl)c3C2=O)c(F)c1 [Example 280, 4-(2-chloro-6-fluorophenoxy)-2-(4-(1,3-dimethyl-1H-pyrazol-4-yl)-2-fluorobenzyl)-1,2-dihydro-3H-pyrrolo[3,4-c]pyridin-3-one]
2 | 65 nM | 108% | Cc1nn(C)cc1-c1ccc(CN2Cc3ccnc(Oc4c(F)cccc4Cl)c3C2=O)cc1 [Example 281, 4-(2-chloro-6-fluorophenoxy)-2-(4-(1,3-dimethyl-1H-pyrazol-4-yl)benzyl)-1,2-dihydro-3H-pyrrolo[3,4-c]pyridin-3-one]
3 | 10 nM | 97% | COc1ccc(F)c(Oc2nccc3c2C(=O)N(Cc2ccc(-c4cn(C)nc4C)cc2F)C3)c1F [Example 283, 4-(2,6-difluoro-3-methoxyphenoxy)-2-(4-(1,3-dimethyl-1H-pyrazol-4-yl)-2-fluorobenzyl)-1,2-dihydro-3H-pyrrolo[3,4-c]pyridin-3-one]
4 | 44 nM | 91% | Cc1cc(-c2ccc(CN3Cc4ccnc(Oc5cc(CO)ccc5F)c4C3=O)cc2)ccn1 [Example 290, 4-(2-fluoro-5-(hydroxymethyl)phenoxy)-2-(4-(2-methylpyridin-4-yl)benzyl)-1,2-dihydro-3H-pyrrolo[3,4-c]pyridin-3-one]
5 | 16 nM | 96% | Cn1cc(-c2ccc(CN3Cc4ccnc(Oc5cc(C#N)ccc5F)c4C3=O)cc2)cn1 [Example 297, 4-fluoro-3-((2-(4-(1-methyl-1H-pyrazol-4-yl)benzyl)-3-oxo-2,3-dihydro-1H-pyrrolo[3,4-c]pyridin-4-yl)oxy)benzonitrile]
6 | 32 nM | 92% | COCc1ccc(F)c(Oc2nccc3c2C(=O)N(Cc2ccc(-c4cnn(C)c4)cc2)C3)c1 [Example 302, 4-(2-fluoro-5-(methoxymethyl)phenoxy)-2-(4-(1-methyl-1H-pyrazol-4-yl)benzyl)-1,2-dihydro-3H-pyrrolo[3,4-c]pyridin-3-one]
7 | 12 nM | 93% | Cn1cc(-c2ccc(CN3Cc4ccnc(Oc5ccc(C(F)(F)F)cc5F)c4C3=O)cc2)cn1 [Example 304, 4-(2-fluoro-4-(trifluoromethyl)phenoxy)-2-(4-(1-methyl-1H-pyrazol-4-yl)benzyl)-1,2-dihydro-3H-pyrrolo[3,4-c]pyridin-3-one]
8 | 25 nM | 94% | Cn1ccc(-c2ccc(CN3Cc4ccnc(Oc5ccc(C(F)(F)F)cc5F)c4C3=O)cc2)n1 [Example 305, 4-(2-fluoro-4-(trifluoromethyl)phenoxy)-2-(4-(1-methyl-1H-pyrazol-3-yl)benzyl)-1,2-dihydro-3H-pyrrolo[3,4-c]pyridin-3-one]
9 | 44 nM | 99% | Cn1cc(-c2ccc(CN3Cc4ccnc(Oc5cc(C(C)(C)O)ccc5F)c4C3=O)cc2)cn1 [Example 308, 4-(2-fluoro-5-(2-hydroxypropan-2-yl)phenoxy)-2-(4-(1-methyl-1H-pyrazol-4-yl)benzyl)-1,2-dihydro-3H-pyrrolo[3,4-c]pyridin-3-one]

More lines, now with the values behind:

Row | SMILES | EC50 | activity (%) at 10 μM
10 | O=C1c2c(ccnc2OCC2CCCO2)CN1Cc1ccc(Br)cc1 (centres unmarked) [Example 284, 2-(4-bromobenzyl)-4-((tetrahydrofuran-2-yl)methoxy)-1,2-dihydro-3H-pyrrolo[3,4-c]pyridin-3-one] | 340 nM | 94%
11 | Cn1cc(-c2ccc(CN3Cc4ccnc(OCC5CCCO5)c4C3=O)cc2)cn1 (centres unmarked) [Example 285] | 10 nM | 95%
12 | O=C1c2c(ccnc2OCC2CCCO2)CN1Cc1ccc(-c2cn[nH]c2)cc1 (centres unmarked) [Example 286, 2-(4-(1H-pyrazol-4-yl)benzyl)-4-((tetrahydrofuran-2-yl)methoxy)-1,2-dihydro-3H-pyrrolo[3,4-c]pyridin-3-one] | 13 nM | 99%
13 | O=C1c2c(ccnc2OCC2CCCO2)CN1Cc1ccc(-c2cnn(CC(F)(F)F)c2)cc1 (centres unmarked) [Example 287, 4-((tetrahydrofuran-2-yl)methoxy)-2-(4-(1-(2,2,2-trifluoroethyl)-1H-pyrazol-4-yl)benzyl)-1,2-dihydro-3H-pyrrolo[3,4-c]pyridin-3-one] | 10 nM | 99%
14 | O=C1c2c(ccnc2OCC2CCCO2)CN1Cc1ccc(-c2cnn(CC3CC3)c2)cc1 (centres unmarked) [Example 288, 2-(4-(1-(cyclopropylmethyl)-1H-pyrazol-4-yl)benzyl)-4-((tetrahydrofuran-2-yl)methoxy)-1,2-dihydro-3H-pyrrolo[3,4-c]pyridin-3-one] | 12 nM | 103%
15 | O=C1c2c(ccnc2OCC2CCCO2)CN1Cc1ccc(-c2cnn3ccccc23)cc1 (centres unmarked) [Example 289, 2-(4-(pyrazolo[1,5-a]pyridin-3-yl)benzyl)-4-((tetrahydrofuran-2-yl)methoxy)-1,2-dihydro-3H-pyrrolo[3,4-c]pyridin-3-one] | 4.7 nM | 89%
16 | COCc1ccc(F)c(Oc2nccc3c2C(=O)N(Cc2ccc(-c4ccnc(C)c4)cc2)C3)c1 [Example 291, 4-(2-fluoro-5-(methoxymethyl)phenoxy)-2-(4-(2-methylpyridin-4-yl)benzyl)-1,2-dihydro-3H-pyrrolo[3,4-c]pyridin-3-one] | 34 nM | 91%
17 | O=C1c2c(ccnc2OCC2CCCO2)CN1Cc1ccc(-c2cnn3c2CCCC3)cc1 (centres unmarked) [Example 296, 4-((tetrahydrofuran-2-yl)methoxy)-2-(4-(4,5,6,7-tetrahydropyrazolo[1,5-a]pyridin-3-yl)benzyl)-1,2-dihydro-3H-pyrrolo[3,4-c]pyridin-3-one] | 12 nM | 92%
18 | Cc1cc(-c2ccc(CN3Cc4ccnc(Oc5ccc(C(F)(F)F)cc5F)c4C3=O)cc2)cnn1 [Example 303, 4-(2-fluoro-4-(trifluoromethyl)phenoxy)-2-(4-(6-methylpyridazin-4-yl)benzyl)-1,2-dihydro-3H-pyrrolo[3,4-c]pyridin-3-one] | 8.5 nM | 91%
19 | Cn1cc(-c2ccc(CN3Cc4ncnc(Oc5ccc(C(F)(F)F)cc5F)c4C3=O)cc2)cn1 [Example 306, 4-(2-fluoro-4-(trifluoromethyl)phenoxy)-6-(4-(1-methyl-1H-pyrazol-4-yl)benzyl)-6,7-dihydro-5H-pyrrolo[3,4-d]pyrimidin-5-one] | 8.9 nM | 97%
20 | Cn1cc(-c2ccc(CN3Cc4ncnc(Oc5ccc(C(F)F)cc5F)c4C3=O)cc2)cn1 [Example 307, 4-(4-(difluoromethyl)-2-fluorophenoxy)-6-(4-(1-methyl-1H-pyrazol-4-yl)benzyl)-6,7-dihydro-5H-pyrrolo[3,4-d]pyrimidin-5-one] | 9.3 nM | 92%
21 | O=C1c2c(ccnc2Oc2ccc(C(F)(F)F)cc2F)CN1Cc1ccc(-c2ccnnc2)cc1 [Example 309, 4-(2-fluoro-4-(trifluoromethyl)phenoxy)-2-(4-(pyridazin-4-yl)benzyl)-1,2-dihydro-3H-pyrrolo[3,4-c]pyridin-3-one] | 27 nM | 100%
22 | Cn1ccc(-c2ccc(CN3Cc4ncnc(Oc5ccc(C(F)F)cc5F)c4C3=O)cc2)n1 [Example 310, 4-(4-(difluoromethyl)-2-fluorophenoxy)-6-(4-(1-methyl-1H-pyrazol-3-yl)benzyl)-6,7-dihydro-5H-pyrrolo[3,4-d]pyrimidin-5-one] | 30 nM | 105%
